According to US4246280A, “20-Alkoxy-16-alkyl-prostadienoic acid derivatives” (priority 1974, dated 1981):

Tests used:
[1] = Antiasthmatic effect, aerosol (protection against sneezing induced by histamine aerosol in guinea-pigs); assay type: in vivo; conditions: aerosol of test compound 15 sec, histamine 0.1% aerosol
Method: Guinea-pigs were placed in a chamber and sprayed for 10 sec with an aerosol of histamine solution (0.1%) and onset of sneezing was recorded and animals with control time of 70-100 sec were selected. These animals were sprayed for 15 sec with an aerosol of test compounds. After 45 sec, sprayed histamine and observed for 3 min it was. […] The percent of animals protected was determined.

[2] = Antiasthmatic effect, oral (protection against histamine spray 30 min after oral administration in guinea-pigs); assay type: in vivo; conditions: for ED50: Cavia porcellus, 0.5 h, read-out: Antiasthmatic effect, Oral (a), ED50; for b/a: ratio of diarrhea ED50 (b) to oral antiasthmatic ED50 (a)
Method: Guinea-pigs were sprayed for 10 sec with histamine 30 min after oral administration of test compounds and observed for 3 min. The percent of aminals protected was determined.

[3] = Diarrhea-producing effect, oral, guinea-pigs; conditions: guinea pig, in vivo, 2hr to next morning, read-out: (A) Diarrhea-producing effect (b), ED50
Method: II. Diaarrhea-producing effect
Test compounds were administered orally to guinea-pigs. The appearance of diarrhea (loose or watery feces) at 2hr, 3hr, 4hr, 5hr and next morning was noted.

[4] = Effect on air-way resistance (Konzett and Rossler; histamine-induced broncho-constriction, intraduodenal administration); assay type: in vivo, guinea-pig; conditions: Cavia porcellus, 0.5 h, read-out: (B) Effect on airway resistance, ED50
Method: III. Effect on air-way resistance
The air-way resistance of the guinea-pig lung was determined by the method of Konzett and Rossler (Arch. exp. Path. Pharmak., 195, 71-74(1940)). The bronchorelaxing activity of prostaglandins were expressed in terms of protective effect against broncho-constriction elicited by intravenous injection of histamine (3 μg/kg). Histamine was injected 30 min after intraduodenal administration of test compound to urethane anesthetized and artificially ventilated guinea-pigs.

[5] = guinea-pigs, oral, histamine 30 min after administration

SMILES	Antiasthmatic effect, Aerosol, ED50 [1]	ED50 ([2]; po)	b/a [2]	TD50 [3]	ED50 [2, 5]	antiasthmatic effect upon oral administration (in words) ([2]; guinea-pigs, oral)	ED50 [4]	ED50 ([4]; guinea-pigs, intraduodenal, histamine 3 μg/kg i.v. 30 min later)
CCCC[C@@H](C)C(O)/C=C/[C@H]1[C@H](O)CC(=O)[C@@H]1C/C=C\CCCC(=O)O (stereo partly drawn) [11α,15-dihydroxy-16(R)-methyl-9-oxo-5(cis)-13(trans)prostadienoic acid]	0.011 µg/mL	0.0175 mg/kg	1.43	0.025 mg/kg				
CCCCC(C)C(O)/C=C/[C@H]1[C@H](O)CC(=O)[C@@H]1C/C=C\CCCC(=O)O (stereo partly drawn) [11α,15-dihydroxy-16-methyl-9-oxo-5(cis)-13(trans)prostadienoic acid]	0.009 µg/mL	0.025 mg/kg	4.0	0.1 mg/kg				
COCCCCCC(O)/C=C/[C@H]1[C@H](O)CC(=O)[C@@H]1C/C=C\CCCC(=O)O (stereo partly drawn) [20-methoxy-PGE2, 11α,15-dihydroxy-20-methoxy-9-oxo-5(cis)-13(trans)prostadienoic acid]	0.15 µg/mL				> 0.8 mg/kg	no antiasthmatic effect upon oral administration		
COCCCCC(C)C(O)/C=C/[C@H]1[C@H](O)CC(=O)[C@@H]1C/C=C\CCCC(=O)O (stereo partly drawn) [Example 3, 11α,15-dihydroxy-20-methoxy-16-methyl-9-oxo-5(cis)-13(trans)prostadienoic acid]	0.037 µg/mL	0.0098 mg/kg	12.2	0.12 mg/kg			0.0135 mg/kg	
COCCCC[C@H](C)C(O)/C=C/[C@H]1[C@H](O)CC(=O)[C@@H]1C/C=C\CCCC(=O)O (stereo partly drawn) [Example 6, 11α,15-dihydroxy-20-methoxy-16(S)-methyl-9-oxo-5(cis)-13(trans)prostadienoic acid]		0.71 mg/kg	20.0	0.14 mg/kg				
COCCCC[C@H](C)C(O)/C=C/[C@H]1[C@H](O)CC(=O)[C@@H]1C/C=C\CCCC(=O)OC (stereo partly drawn) [Example 7 ([α]D^25-58.0°), 11α,15-dihydroxy-20-methoxy-16(S)-methyl-9-oxo-5(cis)-13(trans)prostadienoic acid methyl ester]		0.016 mg/kg	9.06	0.145 mg/kg				
COCCCCC(C)C(O)/C=C/[C@H]1[C@H](O)CC(=O)[C@@H]1C/C=C\CCCC(=O)OC (stereo partly drawn) [Example 7 ([α]D^25-66.4°), 11α,15-dihydroxy-20-methoxy-16-methyl-9-oxo-5(cis)-13(trans)prostadienoic acid methyl ester]		0.0053 mg/kg	9.62	0.051 mg/kg				
CCCCC[C@H](O)/C=C/[C@H]1[C@H](O)CC(=O)[C@@H]1C/C=C\CCCC(=O)O [Prostaglandin E2]	0.15 µg/mL				> 0.8 mg/kg	no antiasthmatic effect upon oral administration		> 0.8 mg/kg
